Experimental data as given in the NIST ThermoML archive (doi:10.1021/acs.jced.9b00171).
Numbers after ± are expanded uncertainties.

How the values were obtained:
[1] = wn = mass fraction of the nth substance listed; conditions: 101.3 kPa, Liquid, Oscillating disk viscometry
[2] = refractive index (Na D-line) (dimensionless); wn = mass fraction of the nth substance listed; conditions: 101.3 kPa, Liquid, Standard Abbe refractometry

NCCNCCO [N-(2-aminoethyl)ethanolamine] + O
viscosity ([1]; 293.15 K, w1 = 0.05): 1.2 ± 0.29 mPa·s
viscosity ([1]; 293.15 K, w1 = 0.1): 1.6 ± 0.38 mPa·s
viscosity ([1]; 293.15 K, w1 = 0.15): 2.02 ± 0.47 mPa·s
viscosity ([1]; 293.15 K, w1 = 0.2): 2.58 ± 0.62 mPa·s
viscosity ([1]; 293.15 K, w1 = 0.25): 3.47 ± 0.86 mPa·s
viscosity ([1]; 293.15 K, w1 = 0.3): 4.73 ± 1.1 mPa·s
viscosity ([1]; 298.15 K, w1 = 0.05): 1.11 ± 0.25 mPa·s
viscosity ([1]; 298.15 K, w1 = 0.1): 1.36 ± 0.31 mPa·s
viscosity ([1]; 298.15 K, w1 = 0.15): 1.74 ± 0.41 mPa·s
viscosity ([1]; 298.15 K, w1 = 0.2): 2.22 ± 0.53 mPa·s
viscosity ([1]; 298.15 K, w1 = 0.25): 2.98 ± 0.73 mPa·s
viscosity ([1]; 298.15 K, w1 = 0.3): 3.95 ± 0.94 mPa·s
viscosity ([1]; 303.15 K, w1 = 0.05): 0.95 ± 0.22 mPa·s
viscosity ([1]; 303.15 K, w1 = 0.1): 1.18 ± 0.27 mPa·s
viscosity ([1]; 303.15 K, w1 = 0.15): 1.48 ± 0.34 mPa·s
viscosity ([1]; 303.15 K, w1 = 0.2): 1.89 ± 0.44 mPa·s
viscosity ([1]; 303.15 K, w1 = 0.25): 2.37 ± 0.59 mPa·s
viscosity ([1]; 303.15 K, w1 = 0.3): 3.32 ± 0.81 mPa·s
viscosity ([1]; 308.15 K, w1 = 0.05): 0.85 ± 0.19 mPa·s
viscosity ([1]; 308.15 K, w1 = 0.1): 1.06 ± 0.24 mPa·s
viscosity ([1]; 308.15 K, w1 = 0.15): 1.32 ± 0.3 mPa·s
viscosity ([1]; 308.15 K, w1 = 0.2): 1.63 ± 0.37 mPa·s
viscosity ([1]; 308.15 K, w1 = 0.25): 2.08 ± 0.48 mPa·s
viscosity ([1]; 308.15 K, w1 = 0.3): 2.61 ± 0.62 mPa·s
viscosity ([1]; 313.15 K, w1 = 0.05): 0.76 ± 0.17 mPa·s
viscosity ([1]; 313.15 K, w1 = 0.1): 0.94 ± 0.21 mPa·s
viscosity ([1]; 313.15 K, w1 = 0.15): 1.17 ± 0.26 mPa·s
viscosity ([1]; 313.15 K, w1 = 0.2): 1.41 ± 0.32 mPa·s
viscosity ([1]; 313.15 K, w1 = 0.25): 1.76 ± 0.4 mPa·s
viscosity ([1]; 313.15 K, w1 = 0.3): 2.19 ± 0.5 mPa·s
viscosity ([1]; 318.15 K, w1 = 0.05): 0.69 ± 0.15 mPa·s
viscosity ([1]; 318.15 K, w1 = 0.1): 0.84 ± 0.19 mPa·s
viscosity ([1]; 318.15 K, w1 = 0.15): 1.03 ± 0.23 mPa·s
viscosity ([1]; 318.15 K, w1 = 0.2): 1.24 ± 0.28 mPa·s
viscosity ([1]; 318.15 K, w1 = 0.25): 1.53 ± 0.35 mPa·s
viscosity ([1]; 318.15 K, w1 = 0.3): 1.86 ± 0.42 mPa·s
viscosity ([1]; 323.15 K, w1 = 0.05): 0.64 ± 0.14 mPa·s
viscosity ([1]; 323.15 K, w1 = 0.1): 0.77 ± 0.17 mPa·s
viscosity ([1]; 323.15 K, w1 = 0.15): 0.92 ± 0.2 mPa·s
viscosity ([1]; 323.15 K, w1 = 0.2): 1.08 ± 0.24 mPa·s
viscosity ([1]; 323.15 K, w1 = 0.25): 1.28 ± 0.29 mPa·s
viscosity ([1]; 323.15 K, w1 = 0.3): 1.59 ± 0.36 mPa·s
viscosity ([1]; 328.15 K, w1 = 0.05): 0.59 ± 0.13 mPa·s
viscosity ([1]; 328.15 K, w1 = 0.1): 0.7 ± 0.15 mPa·s
viscosity ([1]; 328.15 K, w1 = 0.15): 0.82 ± 0.18 mPa·s
viscosity ([1]; 328.15 K, w1 = 0.2): 0.95 ± 0.2 mPa·s
viscosity ([1]; 328.15 K, w1 = 0.25): 1.11 ± 0.24 mPa·s
viscosity ([1]; 328.15 K, w1 = 0.3): 1.35 ± 0.3 mPa·s
viscosity ([1]; 333.15 K, w1 = 0.05): 0.55 ± 0.12 mPa·s
viscosity ([1]; 333.15 K, w1 = 0.1): 0.64 ± 0.14 mPa·s
viscosity ([1]; 333.15 K, w1 = 0.15): 0.74 ± 0.16 mPa·s
viscosity ([1]; 333.15 K, w1 = 0.2): 0.87 ± 0.19 mPa·s
viscosity ([1]; 333.15 K, w1 = 0.25): 1.02 ± 0.22 mPa·s
viscosity ([1]; 333.15 K, w1 = 0.3): 1.2 ± 0.26 mPa·s
refractive index ([2]; 293.15 K, w1 = 0.05): 1.3406 ± 0.0027
refractive index ([2]; 293.15 K, w1 = 0.1): 1.3452 ± 0.0029
refractive index ([2]; 293.15 K, w1 = 0.15): 1.351 ± 0.0033
refractive index ([2]; 293.15 K, w1 = 0.2): 1.3582 ± 0.0036
refractive index ([2]; 293.15 K, w1 = 0.25): 1.366 ± 0.004
refractive index ([2]; 293.15 K, w1 = 0.3): 1.3752 ± 0.0042
refractive index ([2]; 298.15 K, w1 = 0.05): 1.3401 ± 0.0027
refractive index ([2]; 298.15 K, w1 = 0.1): 1.3446 ± 0.0029
refractive index ([2]; 298.15 K, w1 = 0.15): 1.3504 ± 0.0033
refractive index ([2]; 298.15 K, w1 = 0.2): 1.3575 ± 0.0036
refractive index ([2]; 298.15 K, w1 = 0.25): 1.3652 ± 0.004
refractive index ([2]; 298.15 K, w1 = 0.3): 1.3744 ± 0.0042
refractive index ([2]; 303.15 K, w1 = 0.05): 1.3394 ± 0.0027
refractive index ([2]; 303.15 K, w1 = 0.1): 1.3438 ± 0.0029
refractive index ([2]; 303.15 K, w1 = 0.15): 1.3496 ± 0.0033
refractive index ([2]; 303.15 K, w1 = 0.2): 1.3567 ± 0.0036
refractive index ([2]; 303.15 K, w1 = 0.25): 1.3643 ± 0.0039
refractive index ([2]; 303.15 K, w1 = 0.3): 1.3735 ± 0.0042
refractive index ([2]; 308.15 K, w1 = 0.05): 1.3387 ± 0.0027
refractive index ([2]; 308.15 K, w1 = 0.1): 1.343 ± 0.0029
refractive index ([2]; 308.15 K, w1 = 0.15): 1.3487 ± 0.0033
refractive index ([2]; 308.15 K, w1 = 0.2): 1.3558 ± 0.0036
refractive index ([2]; 308.15 K, w1 = 0.25): 1.3633 ± 0.0039
refractive index ([2]; 308.15 K, w1 = 0.3): 1.3724 ± 0.0042
refractive index ([2]; 313.15 K, w1 = 0.05): 1.3378 ± 0.0027
refractive index ([2]; 313.15 K, w1 = 0.1): 1.3421 ± 0.0028
refractive index ([2]; 313.15 K, w1 = 0.15): 1.3476 ± 0.0033
refractive index ([2]; 313.15 K, w1 = 0.2): 1.3548 ± 0.0036
refractive index ([2]; 313.15 K, w1 = 0.25): 1.3622 ± 0.0039
refractive index ([2]; 313.15 K, w1 = 0.3): 1.3712 ± 0.0041
refractive index ([2]; 318.15 K, w1 = 0.05): 1.3368 ± 0.0027
refractive index ([2]; 318.15 K, w1 = 0.1): 1.341 ± 0.0028
refractive index ([2]; 318.15 K, w1 = 0.15): 1.3464 ± 0.0033
refractive index ([2]; 318.15 K, w1 = 0.2): 1.3536 ± 0.0036
refractive index ([2]; 318.15 K, w1 = 0.25): 1.361 ± 0.0039
refractive index ([2]; 318.15 K, w1 = 0.3): 1.3698 ± 0.0041
refractive index ([2]; 323.15 K, w1 = 0.05): 1.3358 ± 0.0026
refractive index ([2]; 323.15 K, w1 = 0.1): 1.3398 ± 0.0028
refractive index ([2]; 323.15 K, w1 = 0.15): 1.3451 ± 0.0033
refractive index ([2]; 323.15 K, w1 = 0.2): 1.3523 ± 0.0036
refractive index ([2]; 323.15 K, w1 = 0.25): 1.3597 ± 0.0038
refractive index ([2]; 323.15 K, w1 = 0.3): 1.3682 ± 0.004
refractive index ([2]; 328.15 K, w1 = 0.05): 1.3347 ± 0.0026
refractive index ([2]; 328.15 K, w1 = 0.1): 1.3385 ± 0.0027
refractive index ([2]; 328.15 K, w1 = 0.15): 1.3436 ± 0.0032
refractive index ([2]; 328.15 K, w1 = 0.2): 1.3508 ± 0.0036
refractive index ([2]; 328.15 K, w1 = 0.25): 1.3582 ± 0.0038
refractive index ([2]; 328.15 K, w1 = 0.3): 1.3664 ± 0.0039
refractive index ([2]; 333.15 K, w1 = 0.05): 1.3335 ± 0.0025
refractive index ([2]; 333.15 K, w1 = 0.1): 1.3371 ± 0.0027
refractive index ([2]; 333.15 K, w1 = 0.15): 1.342 ± 0.0032
refractive index ([2]; 333.15 K, w1 = 0.2): 1.3491 ± 0.0036
refractive index ([2]; 333.15 K, w1 = 0.25): 1.3566 ± 0.0038
refractive index ([2]; 333.15 K, w1 = 0.3): 1.3648 ± 0.0039
